Test systems include 786-0; ACHN; CCRF-CEM; DU-145; HCC 2998; HCT-116; HCT-15; HT-29; M14; MCF7; MOLT-4; NCI-H460; NCI-H522; OVCAR-4; RXF 393; SF-539; SK-OV-3; SNB-75; TK-10; UO-31.
Common to all, as to assay: NCI-60 cell line screen, 48 h

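Each compound was tested at five concentrations against cells in 96-well plates for 48 hours. The concentration for 50% growth inhibition is given as GI50.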 Activity calls are given as the source filed them. Cut-off read from the data, not from the text of the source: active = GI50 up to about 1.1 µM and inactive = higher.

In the case of `CCCCCCCCCCNC(=O)CCC(NC(=O)c1ccc(N(C)Cc2cnc3nc(N)nc(N)c3n2)cc1)C(=O)NCCCCCCCCCC` (stereo not given), the GI50 was 3.05 µM (inactive) in the experiment with 786-0; 44.7 µM (inactive) in the experiment on ACHN; 2.53 µM (inactive) with CCRF-CEM; 20.1 µM (inactive) in the experiment on DU-145; 5.75 µM (inactive) with HCC 2998; 3.71 µM (inactive) in the experiment on HCT-116. Also, the GI50 in the experiment on HCT-15 is 17.9 µM; in the experiment on HT-29, 10.5 µM (inactive); in the experiment with M14, 8.97 µM (inactive); with MCF7 it was 4.06 µM (inactive); with MOLT-4, 2.99 µM (inactive); in the experiment on NCI-H460 it was 4.06 µM (inactive). For the same compound, the GI50 in the experiment with NCI-H522 was 4.43 µM (inactive); with OVCAR-4 it was 8.99 µM (inactive); with RXF 393 it was 5.53 µM (inactive); with SF-539, 5.13 µM (inactive); in the experiment on SK-OV-3 it was 27.8 µM (inactive); in the experiment with SNB-75 it was 11.9 µM (inactive). The GI50 with TK-10 is 55.8 µM (inactive); in the experiment with UO-31 it was 74.3 µM (inactive).

The values are drawn from ChEMBL document CHEMBL1201862, “PubChem BioAssay data set” (2004).
